From patent US7736537B1, “Replacement solvents having improved properties for refrigeration flushes” (Mainstream Engineering Corp., priority 2008, dated 2010)
Read-outs that look alike come from different tables or passages of the source.

Key:
[1] = solubility parameter, Table 1; cited from earlier work
[2] = Text: Parameters such as the lethal dose 50 (LD50), lethal concentration 50 (LC50), cardiac sensitization, skin irritation, and mutagenicity (e.g., via the Ames test) can be used as toxicity metrics. The LDn or LCn abbreviations, where n is the percent lethality, are used for the dose of a toxicant lethal to n % of a test population. […] Cardiac sensitization is a measure of the ability of a compound to cause cardiac arrhythmia under stress.
The property modification components are chosen from a list of potential replacement solvents. These compounds included halogenated compounds such as halogenated acetates, alcohols, alkanes, cycloalkanes, alkenes, cycloalkenes, amines, anhydrides, aromatics, carbonyls, diones, esters, ethers, heterocyclics and ketones.

[3] = Table 1; cited from earlier work
[4] = cardiac sensitization relative to CFC-113

Row | Molecule | SP [1] | CS/CS113 [2, 4] | BP [3] | CS/CS113 [2]
1 | 1-bromo-bis(perfluoromethyl)ethylene | 7.06 (cal/cm^3)^1/2 | 42.7 | 45.1 C. | 
2 | OC(C(F)(F)F)(C(F)(F)F)C(F)(F)F [1,1,1,3,3,3-hexafluoro-2-(trifluoromethyl)-2-propanol] | 6.84 (cal/cm^3)^1/2 | 61.2 | 46.0 C. | 
3 | FC(F)(Br)C=C(C(F)(F)F)C(F)(F)F [1,1,1,4,4-pentafluoro-4-bromo-2-trifluoromethyl-2-butene] | 6.77 (cal/cm^3)^1/2 | 105.5 | 61.0 C. | 
4 | O=C(CC(=O)C(F)(F)F)C(F)(F)F [1,1,1,5,5,5-hexafluoro-2,4-pentanedione] | 6.90 (cal/cm^3)^1/2 |  | 69.9 C. | 140.5
5 | O=C(CC(F)(F)F)C(F)(F)Br [1,1,4,4,4-pentafluoro-1-bromo-2-butanone] | 7.89 (cal/cm^3)^1/2 | 17.1 | 89.0 C. | 
6 | O=C(CC(F)(F)F)CC(F)(F)Br [1,1,5,5,5-pentafluoro-1-bromo-3-pentanone] | 7.89 (cal/cm^3)^1/2 | 34.2 | 118.4 C. | 
7 | FC(F)(F)C(F)(F)C(F)(F)C(F)(F)/C=C\C(F)(F)C(F)(F)C(F)(F)C(F)(F)F [1,2-(Z)-bis(perfluoro-n-butyl)ethylene] | 6.81 (cal/cm^3)^1/2 | 1188.5 | 132.0 C. | 
8 | FC1(F)C(Cl)=C(Cl)C(F)(F)C(F)(F)C1(F)F [1,2-dichloro-3,3,4,4,5,5,6,6-octafluoro-cyclohexene] | 7.55 (cal/cm^3)^1/2 | 15.5 | 123.8 C. | 
9 | FC1(F)C(Cl)=C(Cl)C(F)(F)C1(F)F [1,2-dichloro-hexafluoro-cyclopentene] | 7.90 (cal/cm^3)^1/2 | 9.9 | 90.0 C. | 
10 | FC(Cl)C(F)(F)C(F)(F)Cl (stereo not shown) [1,3-dichloro-1,1,2,2,3-pentafluoropropane] | 7.31 (cal/cm^3)^1/2 | 9.2 | 52.7 C. | 
11 | FC1=C(OCC(F)(F)F)C(F)(F)C(F)(F)C(F)(F)C1(F)F [1-(2,2,2-trifluoroethoxy)nonafluoro-cyclohexene] | 7.51 (cal/cm^3)^1/2 | 70.2 | 113.7 C. | 
12 | C=C(OC(F)(F)Br)C(F)(F)F [1-(bromodifluoromethoxy)-1-(trifluoromethyl)ethene] | 7.67 (cal/cm^3)^1/2 | 27.7 | 66.3 C. | 
13 | FC(OC(F)(F)Br)=C(C(F)(F)F)C(F)(F)F [1-(bromodifluoromethoxy)-2-(trifluoromethyl)-1,3,3,3-tetrafluoro-1-propene] | 7.06 (cal/cm^3)^1/2 | 187.0 | 78.6 C. | 
14 | FC(F)(Br)OC=C(C(F)(F)F)C(F)(F)F [1-(bromodifluoromethoxy)-2-(trifluoromethyl)-3,3,3-trifluoro-1-propene] | 7.26 (cal/cm^3)^1/2 | 151.6 | 78.3 C. | 
15 | FC(Br)=C(C(F)(F)F)C(F)(F)F [1-bromo-1,3,3,3-tetrafluoro-2-(trifluoromethyl)-1-propene] | 6.78 (cal/cm^3)^1/2 | 71.9 | 51.9 C. | 
16 | FC(F)(F)c1cc(C(F)(F)F)c(Br)c(C(F)(F)F)c1 [1-bromo-2,4,6-tris(trifluoromethyl)benzene] | 7.76 (cal/cm^3)^1/2 | 113.0 | 173.4 C. | 
17 | FC(F)(F)C(=CBr)C(F)(F)F [1-bromo-2-(trifluoromethyl)-3,3,3-trifluoropropene] | 6.95 (cal/cm^3)^1/2 | 49.4 | 49.3 C. | 
18 | FC(F)OC(Cl)C(F)(F)F (stereo not shown) [1-chloro-2,2,2-trifluoroethyl difluoromethyl ether, reference compound] | 7.58 (cal/cm^3)^1/2 | 50.2 | 48.8 C. | 

Row | Molecule | SP [1] | CS/CS113 [2, 4] | BP [3] | CS/CS113 [2]
19 | COC(F)=C(C(F)(F)F)C(F)(F)F [1-methoxy-2-trifluoromethyl-1,3,3,3-tetrafluoro-1-propene] | 7.09 (cal/cm^3)^1/2 | 154.6 | 44.5 C. | 
20 | FC1C(F)C(F)(F)C(F)(F)C(F)C1(F)F (stereo not shown) [1H,2H,4H-nonafluorocyclohexane] | 7.02 (cal/cm^3)^1/2 | 18.5 | 65.0 C. | 
21 | FC(F)=C(F)OC(F)(F)C(F)(F)Br [2-bromo-1,1,2,2-tetrafluoroethoxy-trifluoroethene] | 7.30 (cal/cm^3)^1/2 | 33.0 | 81.9 C. | 
22 | C=C(Br)C(F)(F)C(F)(F)F [2-bromo-3,3,4,4,4-pentafluorobutene] | 7.19 (cal/cm^3)^1/2 | 10.5 | 66.1 C. | 
23 | Fc1c(F)c(F)c(C(F)(F)F)c(Br)c1F [2-bromoheptafluorotoluene] | 7.64 (cal/cm^3)^1/2 | 21.5 | 151.3 C. | 
24 | FC(F)OC(F)(F)C(F)Cl (stereo not shown) [2-chloro-1,1,2-trifluoroethyl difluoromethyl ether, reference compound] | 7.71 (cal/cm^3)^1/2 |  | 56.7 C. | 35.5
25 | CCOC(F)(F)C(F)Cl (stereo not shown) [2-chloro-1,1,2-trifluoroethyl ethyl ether] | 7.50 (cal/cm^3)^1/2 | 15.0 | 88.9 C. | 
26 | FC(C(F)C(F)(F)C(F)(F)F)C(F)(F)F (stereo not shown) [2H,3H-decafluoropentane] | 6.84 (cal/cm^3)^1/2 | 91.5 | 55.0 C. | 
27 | OCC(C(F)(F)F)(C(F)(F)F)C(F)(F)F [3,3,3-trifluoro-bis-2,2-(trifluoromethyl)-1-propanol] | 6.81 (cal/cm^3)^1/2 | 40.7 | 86.1 C. | 
28 | FC(F)(F)C(F)(F)C(Cl)Cl [3,3-dichloro-1,1,1,2,2-pentafluoropropane] | 7.26 (cal/cm^3)^1/2 | 16.7 | 48.5 C. | 
29 | FC(F)=C(F)C(F)(Br)C(F)(F)F (stereo not shown) [3-bromo-1,1,2,3,4,4,4-heptafluorobutene] | 6.75 (cal/cm^3)^1/2 | 21.9 | 47.5 C. | 
30 | FC=CC(F)(F)Br [3-bromo-1,3,3-trifluoropropene] | 7.73 (cal/cm^3)^1/2 | 12.9 | 41.5 C. | 
31 | C=C(F)C(F)(F)Br [3-bromo-2,3,3-trifluoropropene] | 7.66 (cal/cm^3)^1/2 | 6.1 | 41.6 C. | 
32 | C=C(F)C(F)(Br)C(F)(F)F (stereo not shown) [3-bromo-2,3,4,4,4-pentafluorobutene] | 7.20 (cal/cm^3)^1/2 | 4.9 | 69.7 C. | 
33 | C=CC(F)(F)Br [3-bromo-3,3-difluoro-1-propene] | 7.89 (cal/cm^3)^1/2 | 5.9 | 42.0 C. | 
34 | C=C(C(F)(F)F)C(F)(F)Br [3-bromo-3,3-difluoro-2-(trifluoromethyl)-propene] | 7.24 (cal/cm^3)^1/2 | 15.0 | 49.7 C. | 
35 | FC(F)(Cl)C(F)(Cl)Cl [CFC-113, 1,1,2-trichloro-1,2,2-trifluoroethane, reference compound] |  |  | 47.6 C. | 
